According to patent US11427604B2 (Mindset Pharma Inc., priority 2020, dated 2022):
Several values for one entry are separate records, joined by “and”; a condition that tells them apart may be missing. Equal values may be shown once.

Test system: C57BL/6J mice
Experiment: Mouse head twitch response (HTR)
Type: in vivo
Details: for Head Twitch 30 mins, AVG / Head Twitch 40 mins, AVG / Head Twitch 50 mins, AVG / Head Twitch 60 mins, AVG / Head Twitch Total, AVG / Head Twitch 10 mins, AVG / Head Twitch 20 mins, AVG: group mean; for Head Twitch Total, AVG: over 1 h
Protocol: Data is expressed as mean±SEM. The induction of head twitches elicited by 5-HT2A receptor agonists is believed to represent a behavioural proxy of their psychedelic effects.
The effect of different doses of exemplary compounds of Formula I were evaluated on head-twitch response (HTR) as a behavior-based model of psychedelic activity.
Male, C57BL/6J mice (body weight range 20-30 g) were dosed with the appropriate dose of test article, and following a 1-minute pre-treatment time, placed in individual observation chambers. Animals were visually assessed for the incidence head twitches continuously over a 1 hr period. Head twitches were defined as a rapid jerk of the head which was not elicited by an external tactile stimulus (Corne and Pickering, Psychopharmacologia, 1967, 11(1): 65-78). Each head twitch was individually counted by a trained observer, and the data expressed as the mean+SEM of 6-10 mice per group. Mice were used in a single experiment only.

## [2H]C([2H])([2H])N(C([2H])([2H])[2H])C([2H])([2H])C([2H])([2H])c1c[nH]c2cccc(O)c12 [Compound I-45, 3-(2-(bis(methyl-d3)amino)ethyl-1,1,2,2-d4)-1H-indol-4-ol]
0.1 mg/kg SC
  Head Twitch 30 mins, AVG: 0.4
  Head Twitch 40 mins, AVG: 0.2
  Head Twitch 50 mins, AVG: 0.4
  Head Twitch 60 mins, AVG: 0.0
  Head Twitch Total, AVG: 3.4
0.3 mg/kg SC, animals Q1-Q10
  Head Twitch 10 mins, individual animal: 3 and 1 (4×) and 0 (2×) and 2 (3×)
  Head Twitch 20 mins, individual animal: 0 (4×) and 1 (6×)
  Head Twitch 30 mins, individual animal: 1 (3×) and 0 (6×) and 3
  Head Twitch 40 mins, individual animal: 0 (8×) and 1 and 2
  Head Twitch 50 mins, individual animal: 0 (8×) and 1 (2×)
  Head Twitch 60 mins, individual animal: 0
0.3 mg/kg SC, animals Q1-Q10, over 1 h
  Head Twitch Total, individual animal: 4 (4×) and 2 (2×) and 1 and 3 and 6 and 0
0.3 mg/kg SC
  Head Twitch 10 mins, AVG: 1.3
  Head Twitch 20 mins, AVG: 0.6
  Head Twitch 30 mins, AVG: 0.6
  Head Twitch 40 mins, AVG: 0.3
  Head Twitch 50 mins, AVG: 0.2
  Head Twitch 60 mins, AVG: 0.0
  Head Twitch Total, AVG: 3.0
1 mg/kg SC, animals R1-R6
  Head Twitch 10 mins, individual animal: 0 and 4 and 1 and 3 (3×)
  Head Twitch 20 mins, individual animal: 0 (2×) and 2 and 1 and 7 and 8
  Head Twitch 30 mins, individual animal: 1 (2×) and 0 (3×) and 3
  Head Twitch 40 mins, individual animal: 0 (4×) and 2 (2×)
  Head Twitch 50 mins, individual animal: 0
  Head Twitch 60 mins, individual animal: 0
1 mg/kg SC, animals R1-R6, over 1 h
  Head Twitch Total, individual animal: 1 and 6 and 2 and 3 and 15 and 14
1 mg/kg SC
  Head Twitch 10 mins, AVG: 2.3
  Head Twitch 20 mins, AVG: 3.0
  Head Twitch 30 mins, AVG: 0.8
  Head Twitch 40 mins, AVG: 0.7
  Head Twitch 50 mins, AVG: 0.0
  Head Twitch 60 mins, AVG: 0.0
  Head Twitch Total, AVG: 6.8
3 mg/kg SC, animals S1-S6
  Head Twitch 10 mins, individual animal: 1 (2×) and 3 and 2 and 6 and 0
  Head Twitch 20 mins, individual animal: 2 (2×) and 1 and 0 and 3 and 5
  Head Twitch 30 mins, individual animal: 2 (2×) and 1 (3×) and 0
  Head Twitch 40 mins, individual animal: 2 and 0 (4×) and 3
  Head Twitch 50 mins, individual animal: 1 (2×) and 0 (4×)
  Head Twitch 60 mins, individual animal: 0 (5×) and 1
3 mg/kg SC, animals S1-S6, over 1 h
  Head Twitch Total, individual animal: 8 and 5 and 3 and 4 and 14 and 7
3 mg/kg SC
  Head Twitch 10 mins, AVG: 2.2
  Head Twitch 20 mins, AVG: 2.2
  Head Twitch 30 mins, AVG: 1.2
  Head Twitch 40 mins, AVG: 0.8
  Head Twitch 50 mins, AVG: 0.3
  Head Twitch 60 mins, AVG: 0.2
  Head Twitch Total, AVG: 6.8
10 mg/kg SC, animals T1-T6
  Head Twitch 10 mins, individual animal: 3 and 1 (2×) and 0 (3×)
  Head Twitch 20 mins, individual animal: 1 (2×) and 0 (4×)
  Head Twitch 30 mins, individual animal: 0
  Head Twitch 40 mins, individual animal: 0 (4×) and 1 (2×)
  Head Twitch 50 mins, individual animal: 0
  Head Twitch 60 mins, individual animal: 0 (5×) and 3
10 mg/kg SC, animals T1-T6, over 1 h
  Head Twitch Total, individual animal: 4 and 2 and 5 and 0 (2×) and 1
10 mg/kg SC
  Head Twitch 10 mins, AVG: 0.8
  Head Twitch 20 mins, AVG: 0.3
  Head Twitch 30 mins, AVG: 0.0
  Head Twitch 40 mins, AVG: 0.3
  Head Twitch 50 mins, AVG: 0.0
  Head Twitch 60 mins, AVG: 0.5
  Head Twitch Total, AVG: 2.0
0.3-10 mg/kg SC, measured over 1 h
  head twitch frequency compared to vehicle control: dose dependent increase
